Assay [1] can be described thus: Quenching rate constant of singlet oxygen (Rose Bengal photosensitization, Stern-Volmer method). It is filed as biochemical. As to conditions: kq; ethanol solution, 50 μM Rose Bengal; singlet oxygen lifetime taken as 10 μs. An excerpt:
Method for measuring the quenching rate constant of singlet oxygen:
The apparatus used for measuring singlet oxygen included the following parts.
(1) Light source: Xenon lamp (150 W) (Atago Bussan K.K.)
(2) Filters on the excitation side: Water filter (optical path: 50 mm), Color glass filters (HA-15, HA-30, G-533, manufactured by Hoya K.K.)
(3) Sample: Square quartz cell (2×10×50 mm)
(4) Filters on the detection side: Color glass filter (IR-85, manufactured by Hoya K.K.), Interference filter (Nippon Shinku-Kogaku K.K.)
(5) Spectrometer and detector: Spectrometer (HR-320, Jovin Yvon Co.), Germanium (Ge) detector (EO-817L, a type using liquid nitrogen as a coolant, North coast Scientic Corporation)
(6) Amplifier: Light chopper (5584, NF Co.), Frequency filter (E-3201B, NF Co.), Super low noise amplifier (SA-200F3, NF Co.), Digital storage oscilloscope (2431L, SONY Tektronix Co.)
(7) Recording section: Personal computer (PC-9801 BA, NEC Corporation), GP-IB interface
(8) Oxygen concentration control unit: High-pressure oxygen cylinder
Using this apparatus, light was irradiated onto a system which is known to produce singlet oxygen through photochemical sensitization. The wavelength of the light was within an appropriate absorption range of the photosensitizer employed. weak emission in the near infrared region, which is specific to singlet oxygen, was measured for its intensity I. Subsequently, the emission obtained when a test substance was added to the same system was measured. From the decrease in emission intensity I, the quenching rate constant of singlet oxygen of the test substance could be measured in accordance with the Stern-Volmer method. However, since some substances react with the photochemical sensitization system to cause errors in the measurements, the method described by R. H. Young et al., Photochem. Photobiol., vol. 17, p. 233 (1973) was applied to correct this contribution quenching.
A 50 μM ethanol solution of Rose Bengal in a 400 μl square quartz cell was used as a test substance.
First, the light within 490-590 nm, which is appropriate for the maximum absorption wavelength of Rose Bengal, was irradiated onto the cell containing the test substance.
Similarly, another system was subjected to measurement in which a typical singlet oxygen quencher, β-carotene, sodium azide,or 1,4-diazabicyclo[2.2.2]octane, had been added.
Measurement of the quenching rate constant of singlet oxygen: An ethanol solution of each of compounds obtained in the above-described Synthesis Examples and N-phenyldiethanolamine (compound (36)), with Rose Bengal, as a conventional photosensitizer, was used for the measurement of the quenching rate constants of singlet oxygen.
First, emission intensity I of a mixture solution containing 50 μM of Rose Bengal and the above compounds were measured under saturated air conditions. The ratio IOair /Iair was calculated, wherein Iair represents the emission intensity measured for a solution with a test substance at a concentration of Cq (Iair), and Oair represents the emission intensity measured for a solution without test substance. Next, under saturated oxygen conditions, emission intensity was measured for a solution with a test substance at the same concentration Cq (I302). Using these emission intensities, the correction term Fair was obtained in accordance with the following equation.
Interference attributed to the test substance with respect to the photosensitization reaction system was corrected by multiplying IOair /Iair by Fair.
Using the following equation:
(IOair /Iair)'=1+kq ·.tau.·Cq

In the next assay the test system is collagen. Description: Inhibition of protein denaturation (collagen crosslinking, porphyrin + UV). It counts as biochemical. Conditions: 0.1 wt. % in ethanol; collagen 0.5 mg/ml, porphyrin 100 mM; UV-A/UV-B 3 J/cm^2; SDS-PAGE. How it is done: Inhibition of protein denaturation
An ethanol solution containing a test substance (0.1 wt. %) was added to a mixture of collagen (0.5 mg/ml) and 2 porphyrin (100 mM). A mixture of UV-A/UV-B (3 J/cm^2, measured at 365 nm) was irradiated onto the resultant mixture using a solar simulator. The irradiated mixture was applied to SDS-PAGE electrophoresis, and collagen crosslinking inhibition ratios were measured.

In assay [2] the test system is E. coli vector pUC119 DNA. It counts as biochemical. As to conditions: 0.01 wt. % in ethanol; 100 mM porphyrin; UV-A/UV-B 3 J/cm^2; agarose gel electrophoresis. Here is the method:
To a mixture of […] E. coli vector pUC119 DNA and 100 mM porphyrin, an ethanol solution containing a test substance (0.01 wt. %) was added. A mixture of UV-A/UV-B (3 J/cm^2, measured at 365 nm) was irradiated onto the resultant DNA mixture using a solar simulator. A 2.5-fold amount of ethanol and a 0.1-fold amount of 5M sodium acetate were added and the DNA was precipitated. The DNA pellet was dissolved in a TE buffer, and analyzed through agarose gel electrophoresis. Inhibition of DNA single strand breaks formation was measured.

For assay [3], the system named is cultured human fibroblasts. Nature of the assay: Inhibition of lipid peroxide formation in cultured human fibroblasts (TBA method). It counts as cell-based. As to conditions: Homo sapiens, Fibroblast, light or radiation study, 0.01 wt. % in ethanol, 100 mM porphyrin, UV-A/UV-B 1 J/cm^2, read-out: Inhibition ratio regarding lipid peroxide formation. How it is done: Inhibition of lipid peroxide formation
Cultured human fibroblasts were combined with 100 mM porphyrin and a test substance (0.01 wt. %, in ethanol). A mixture of UV-A/UV-B rays (1 J/cm^2, measurements performed at 365 nm) was irradiated onto the resultant cell culture using a solar simulator. The fibroblasts were collected after the trypsin treatment, then extracted hydrophobic substances using acetone. The extracted substances were dried under nitrogen to prepare cellular lipid samples. A TBA method was used to measure lipid peroxides in cells and inhibition ratio by a test substance.

Assay [4] concerns skin of white guinea pigs. Description: Inhibition of erythema formation (UV-A/UV-B irradiation). As to conditions: Cavia porcellus, light or radiation study, topical; 5 wt. % in ethanol; UV-A/UV-B 40 J/cm^2; determined after 1 day and 2 days; read-out: Erythema inhibition rate. It counts as in vivo. The source says:
Inhibition of erythema formation
The hair of white guinea pigs (8 weeks old, female) hair was removed by shaving, and an ethanol solution containing a test substance (5 wt. %) was applied to the shaved part of each animal. A mixture of UV-A/UV-B (40 J/cm^2, measured at 365 nm using a UV-radiometer UVR-305/365-D, Torex Co.) was irradiated onto the back of each guinea pig using a solar simulator Model 1600 (Solar Light Co.). After 1 day and 2 days of irradiation, the erythema formation was visually determined by the standards of the Japanese Dermatological Association to obtain erythema inhibition ratios.

Assay [5] deals with dopachrome formation from dopa. Nature of the assay: Inhibition of immediate pigment darkening (dopachrome formation from dopa, porphyrin + UV). It is filed as biochemical. As to conditions: 0.5 wt. % in ethanol; dopa 1 mM, porphyrin 5 mM; UV-A/UV-B 3 J/cm^2; absorption at 475 nm. How it is done: Inhibition of immediate pigment darkening
An ethanol solution containing a test substance (0.5 wt. %) was added to a mixture of dopa (1 mM) and porphyrin (5 mM). A mixture of UV-A/UV-B (3 J/cm^2, measured at 365 nm) was irradiated onto the resultant mixture using a solar simulator. The amount of dopachrome formed by irradiation was determined by measuring absorption at 475 nm.

Each structure is given as a SMILES string.

10 compounds from patent US5709816A, “Singlet oxygen quenchers and external compositions containing the same” (Kao Corporation, priority 1899, dated 1998) can be followed below.

On to `CCCCN(CC(O)COC)c1ccc(C)c(C)c1` (stereo not drawn) [Compound (32), N-n-butyl-N-(2-hydroxy-3-methoxypropyl)-3,4-xylidine], for which the “Extinction rate constant of singlet oxygen” value (“Extinction rate constant” below) in assay [1] is 1.6e+08 M⁻¹ s⁻¹. The “Protein denaturation inhibition ratio” value in the assay on collagen came to 88%. For the same compound, the “Prevention of DNA damage” value in assay [2] is 61%. For the same compound, the inhibition at 0.01 wt% in assay [3] was found to be 54%. In addition, the inhibition in vivo at 5 % in assay [4] was 53%. Besides, the “Inhibition ratio regarding immediate blackening” value in assay [5] is recorded as 56%.

In the case of `CCCCCCCCN(CC(O)CO)c1ccc(OC)cc1` (stereo not drawn) [Compound (35), N-(2,3-dihydroxypropyl)-N-octyl-p-anisidine], the “Extinction rate constant” value in assay [1] is 2.2e+08 M⁻¹ s⁻¹. In addition, the “Protein denaturation inhibition ratio” value in the assay on collagen is given as 84%. Also, in assay [2], the “Prevention of DNA damage” value was determined as 79%. The inhibition at 0.01 wt% in assay [3] was found to be 56%. Moreover, the inhibition in vivo at 5 % in assay [4] came out at 78%. In assay [5], the “Inhibition ratio regarding immediate blackening” value is listed as 78%.

`Cc1ccc(N(C)CC(O)CO)cc1` (stereo not drawn) [Compound (33), N-(2,3-dihydroxypropyl)-N-methyl-p-toluidine]: the “Extinction rate constant” value in assay [1] amounted to 1.4e+08 M⁻¹ s⁻¹. In the assay on collagen, the “Protein denaturation inhibition ratio” value stood at 44%. Also, the “Prevention of DNA damage” value in assay [2] stood at 48%. Also, the inhibition at 0.01 wt% in assay [3] was 47%. In addition, the inhibition in vivo at 5 % in assay [4] stood at 43%. Moreover, in assay [5], the “Inhibition ratio regarding immediate blackening” value was 67%.

Consider `CCCCN(CC(O)COC)c1ccccc1` (stereo not drawn) [Compound (6), N-n-butyl-N-(2-hydroxy-3-methoxypropyl)aniline], for which the “Extinction rate constant” value in assay [1] was 1.1e+08 M⁻¹ s⁻¹. Besides, the “Protein denaturation inhibition ratio” value in the assay with collagen was found to be 53%. For the same compound, the “Prevention of DNA damage” value in assay [2] worked out at 47%. Also, the inhibition at 0.01 wt% in assay [3] is 40%. For the same compound, in assay [4], the inhibition in vivo at 5 % worked out at 37%. The “Inhibition ratio regarding immediate blackening” value in assay [5] is 53%.

For the compound `CCCCN(CC(O)CO)c1ccc(C)c(C)c1` (stereo not drawn) [Compound (34), N-n-butyl-N-(2,3-dihydroxypropyl)-3,4-xylidine], the “Extinction rate constant” value in assay [1] came to 1.7e+08 M⁻¹ s⁻¹. Besides, the “Protein denaturation inhibition ratio” value in the assay with collagen is on record as 61%. Also, in assay [2], the “Prevention of DNA damage” value is on record as 64%. In addition, in assay [3], the inhibition at 0.01 wt% is 52%. In addition, the inhibition in vivo at 5 % in assay [4] was 65%. Further, the “Inhibition ratio regarding immediate blackening” value in assay [5] is recorded as 63%.

Regarding `CCCCN(CC(O)COC)c1ccc(OC)cc1` (stereo not drawn) [Compound (2), N-n-butyl-N-(2-hydroxy-3-methoxypropyl)-p-anisidine], the “Extinction rate constant” value in assay [1] came out at 2e+08 M⁻¹ s⁻¹. Further, the “Protein denaturation inhibition ratio” value in the assay on collagen was found to be 62%. The “Prevention of DNA damage” value in assay [2] is recorded as 50%. Also, in assay [3], the inhibition at 0.01 wt% turned out to be 43%. Besides, in assay [4], the inhibition in vivo at 5 % came out at 42%. Further, the “Inhibition ratio regarding immediate blackening” value in assay [5] is on record as 57%.

On to `COCC(O)CN(CC(O)COC)c1ccc(C)cc1` (stereo not drawn) [Compound (4), N,N-bis(2-hydroxy-3-methoxypropyl)-p-toluidine], for which the “Extinction rate constant” value in assay [1] came out at 2.1e+08 M⁻¹ s⁻¹. Further, the “Protein denaturation inhibition ratio” value with collagen is reported as 87%. Moreover, in assay [2], the “Prevention of DNA damage” value amounted to 69%. Besides, in assay [3], the inhibition at 0.01 wt% came to 57%. In assay [4], the inhibition in vivo at 5 % stood at 69%. Besides, the “Inhibition ratio regarding immediate blackening” value in assay [5] was 76%.

`CCCCCCCCN(CC(O)COC)c1ccc(OC)cc1` (stereo not drawn) [Compound (3), N-(2-hydroxy-3-methoxypropyl)-N-n-octyl-p-anisidine]: the “Extinction rate constant” value in assay [1] was found to be 2.3e+08 M⁻¹ s⁻¹. Besides, in the assay with collagen, the “Protein denaturation inhibition ratio” value is on record as 93%. Also, in assay [2], the “Prevention of DNA damage” value amounted to 71%. Moreover, the inhibition at 0.01 wt% in assay [3] was 60%. In addition, the inhibition in vivo at 5 % in assay [4] is 71%. The “Inhibition ratio regarding immediate blackening” value in assay [5] is reported as 83%.

With `CCCCN(CC(O)COC)c1ccc(C)cc1` (stereo not drawn) [Compound (5), N-n-butyl-N-(2-hydroxy-3-methoxypropyl)-p-toluidine], the “Extinction rate constant” value in assay [1] amounted to 1.5e+08 M⁻¹ s⁻¹. For the same compound, the “Protein denaturation inhibition ratio” value in the assay on collagen was found to be 81%. For the same compound, the “Prevention of DNA damage” value in assay [2] was found to be 66%. For the same compound, the inhibition at 0.01 wt% in assay [3] stood at 48%. The inhibition in vivo at 5 % in assay [4] was 65%. The “Inhibition ratio regarding immediate blackening” value in assay [5] is given as 65%.

For the compound `COCC(O)CN(C)c1ccc(OC)cc1` (stereo not drawn) [Compound (1), N-(2-hydroxy-3-methoxypropyl)-N-methyl-p-anisidine], in assay [1], the “Extinction rate constant” value came out at 2.2e+08 M⁻¹ s⁻¹. In addition, in the assay on collagen, the “Protein denaturation inhibition ratio” value is 85%. Moreover, the “Prevention of DNA damage” value in assay [2] was 69%. In addition, the inhibition at 0.01 wt% in assay [3] was 51%. Further, the inhibition in vivo at 5 % in assay [4] was 68%. Moreover, the “Inhibition ratio regarding immediate blackening” value in assay [5] is 71%.
